Source: BindingDB's records for doi:10.1016/j.ejmech.2023.115129 (n/a, 2023)
pIC50: −log10 of the molar value.

Molecular target: Replicase polyprotein 1ab (Severe acute respiratory syndrome coronavirus 2, UniProt P0DTD1)
Assay: Inhibition of full-length recombinant SARS-CoV-2 3CL protease expressed in Escherichia coli BL21 (DE3) cells using fluorogenic MCA-AVLQSGFR-Lys (Dnp)-Lys-NH2 substrate preincubated for 10 mins followed by substrate addition measured for 3.5 mins by FRET assay

`C/N=c1\nc(-c2ccc(OC)c(OC)c2)n(-c2ccc(F)cc2)s1` was tested, and the pIC50 was 6.60.
